Test results from patent publication US9868757B2, “5-β, 14-β-androstane derivatives useful for the treatment of proteinuria, glomerulosclerosis and renal failure” (SIGMA-TAU INDUSTRIE FARMACEUTICHE RIUNITE S.p.A., priority 2009, dated 2018).
“And” between values parts separate entries of the source, which are not always exact repeats. Identical values can stand only once.

Columns and labels:
[1] = tested on: rats chronically infused with ouabain (OS rats); assay: Nephrin quantification from renal cortex microsomes of OS rats by Western blotting; type: in vivo, rat
Description: (§1) To test the activity of the compound of the invention for the prevention of proteinuria and loss of renal glomerular proteins, rats chronically infused with ouabain (OS rats) or saline (Control rats) were utilized.
(§2) Two groups of 2-month-old OS rats (n=8 each) were orally treated by gavage with vehicle (Methocel 0.5%) or Rostafuroxin (100 μg/kg) for 8 weeks. One group of saline infused rats was used as control. After this period, systolic blood pressure and urinary protein excretion was measured in the three groups. The animals of the three groups were then sacrificed for nephrin quantification from renal cortex microsomes by Western blotting.
(§3) Three week-old male Sprague-Dawley rats (Harlan, Ind.), weighing 100-110 g, were subcutaneously implanted with osmotic mini-pumps, releasing either 15 μg/kg/day of ouabain (OS rats, n=16) for 14 weeks or sterile saline (CS rats, n=8) (Ferrari P. et al. J. Pharmacol Exp. Ther. 1998; 285: 83-94). […] Systolic blood pressure (SBP) and heart rate (HR) were measured weekly in conscious rats by tail-cuff plethysmography (BP recorder, U. Basile, Italy).
(§4) Urinary parameters were measured in conscious OS and control rats at the 12th week of treatment. […] After centrifugation (4500 rpm for 20 min; Varifuge 3.2 RS, Haereus Instruments, AHSI, Milan, Italy), rat urines were analyzed for the urinary volume (ml), quantified by weighing the urinary reservoir on a precision Mettler balance; urinary pH (pHM83, Radiometer, Copenhagen) and total urinary protein excretion (mg/24 h), measured with a standard total protein Kit (Sentinel Diagnostics, Milan, Italy). The animals of the three groups were then sacrificed, renal cortical microsomes were prepared from each rat and nephrin, the key protein of the slit diaphragm membrane, was quantified by Western blotting. […] Nephrin quantification is expressed as optical density, arbitrary units.

[2] = tested on: rats chronically infused with ouabain (OS rats); assay: Total urinary protein excretion in ouabain-infused (OS) rats; type: in vivo, rat
Description: as §1, §2, §3, §4

[3] = tested on: rats chronically infused with ouabain (OS rats); assay: Systolic blood pressure by tail-cuff plethysmography in ouabain-infused (OS) rats; type: in vivo, rat
Description: as §1, §2
Three week-old male Sprague-Dawley rats (Harlan, Ind.), weighing 100-110 g, were subcutaneously implanted with osmotic mini-pumps, releasing either 15 μg/kg/day of ouabain (OS rats, n=16) for 14 weeks or sterile saline (CS rats, n=8) (Ferrari P. et al. J. Pharmacol Exp. Ther. 1998; 285: 83-94). At the 6th week of ouabain infusion, OS rats were randomly assigned to two groups (n=8 each): the first (OS treated) received Rostafuroxin orally at 100 μg/kg/day, suspended in 0.5% w/v Methocel, and the second group (controls) only vehicle. Systolic blood pressure (SBP) and heart rate (HR) were measured weekly in conscious rats by tail-cuff plethysmography (BP recorder, U. Basile, Italy).

Podocytes from NB rats = assay: Podocyte protein quantification by Western blotting in cultured podocytes from NB rats; type: cell-based, rat
Text: To test the activity of the compound of the invention for the prevention of loss of podocyte proteins, congenic NB rats carrying the beta adducin mutation (Tripodi G. et at Effect of Addl gene transfer on blood pressure in reciprocal congenic strains of Milan rats. BBRC 2004; 324: 562-568) were used. Said NB rats are non-hypertensive rats and are available at Prassis Research Institute, Sigma-tau, Italy.
NB rats of 7 to 10 days of age were used for podocyte isolation and culture. Podocytes from NB rats were incubated for 5 days without (NB control, n=4) and with Rostafuroxin at 10^−9M (NB n=5). Podocyte proteins were quantified at the end of the 5 days of incubation by Western blotting. The quantification by Western blot was replicated two to three times for each podocyte marker. Tables IA and IB show the final number of podocyte samples analyzed for each condition, as mean values of the replicates (NB control, n=4; NB+Rostafuroxin, n=5). The densitometric analysis was quantified as optical density, in arbitrary units.
Glomeruli were isolated from NB kidneys by sieving and further manually purification. Glomeruli were then seeded in culture flasks (Corning, Sigma-Aldrich, Milan, Italy), pre-coated with collagen type IV (Sigma-Aldrich) at 37° C. in 5% CO2 atmosphere. On days 4 to 5, podocyte growth started and, by day 8, glomeruli were detached using trypsin-EDTA. […] Podocyte protein quantification (10 μg protein/lane) was performed by Western blotting technique by using specific antibodies against nephrin, podocin, ZO-1, adducin, synaptopodin and actin.

[4] = OS rats orally treated for 8 weeks with Rostafuroxin 100 μg/kg/day, FIG. 6
[5] = NB + Rostafuroxin 10^-9M vs NB controls
[6] = NB podocytes, 5 days with Rostafuroxin 10^-9M, individual samples/replicates
[7] = NB podocytes, 5 days with Rostafuroxin 10^-9M, mean ± sem

C[C@]12CC[C@H](O)C[C@H]1CC[C@@H]1[C@@H]2CC[C@]2(C)[C@@](O)(c3ccoc3)CC[C@]12O [Rostafuroxin]
Nephrin expression from renal cortex (in words) [1, 4]: increased | Nephrin optical density ([1]; OS rats, 100 μg/kg os Rostafuroxin for 8 weeks, renal cortex microsomes, individual rats): 51.4 arbitrary units and 50.8 arbitrary units and 76.1 arbitrary units and 57.4 arbitrary units and 48.8 arbitrary units and 53.8 arbitrary units and 64.7 arbitrary units and 54.8 arbitrary units | Nephrin optical density, mean ± sem ([1]; OS rats, 100 μg/kg os Rostafuroxin for 8 weeks, renal cortex microsomes, n = 8): 57.3 ± 3.1, n = 8 arbitrary units | urinary protein excretion (in words) [2, 4]: significantly reduced | Proteinuria ([2]; OS rats, 100 μg/kg os Rostafuroxin, 24-hours urine, individual rats): 55.34 mg/24 h and 29.02 mg/24 h and 39.7 mg/24 h and 40.68 mg/24 h and 20.85 mg/24 h and 48.88 mg/24 h and 53.07 mg/24 h and 20.14 mg/24 h | Proteinuria, mean ± sem ([2]; OS rats, 100 μg/kg os Rostafuroxin, 24-hours urine, n = 8): 38.5 ± 4.9, n = 8 mg/24 h | systolic blood pressure (SBP) (in words) [3, 4]: significantly reduced | Systolic blood Pressure ([3]; OS rats, 100 μg/kg os Rostafuroxin for 8 weeks, individual rats): 155 mmHg (3×) and 145 mmHg (2×) and 150 mmHg (2×) and 135 mmHg | Systolic blood Pressure, mean ± sem ([3]; OS rats, 100 μg/kg os Rostafuroxin for 8 weeks, n = 8): 148.8 ± 2.5, n = 8 mmHg | Actin, % vs. Ctrl. (Podocytes from NB rats; [5]): ns | Nephrin, % vs. Ctrl. (Podocytes from NB rats; [5]): +34% | Podocin, % vs. Ctrl. (Podocytes from NB rats; [5]): +60% | Synaptopodin, % vs. Ctrl. (Podocytes from NB rats; [5]): +143% | ZO-1, % vs. Ctrl. (Podocytes from NB rats; [5]): +86% | α-Adducin, % vs. Ctrl. (Podocytes from NB rats; [5]): +95% | amounts of Nephrin, ZO-1, Podocin, α-Adducin and Synaptopodin (in words) (Podocytes from NB rats; NB podocytes cultured 5 days with 10^-9M Rostafuroxin, FIG. 5): increased | Synaptopodin, optical density (Podocytes from NB rats; NB podocytes, 5 days with Rostafuroxin 10^-9M, individual samples): 2.7 arbitrary units and 2.51 arbitrary units and 4.29 arbitrary units and 1.43 arbitrary units and 2.56 arbitrary units | Actin, optical density (Podocytes from NB rats; [6]): 130.5 arbitrary units and 115 arbitrary units and 87.5 arbitrary units and 140.4 arbitrary units and 111 arbitrary units and 98 arbitrary units and 98.2 arbitrary units and 81.2 arbitrary units and 86.2 arbitrary units and 101.2 arbitrary units and 101 arbitrary units and 144.2 arbitrary units and 87.7 arbitrary units and 108 arbitrary units and 103 arbitrary units and 91.6 arbitrary units | Nephrin optical density (Podocytes from NB rats; [6]): 24.53 arbitrary units and 27.06 arbitrary units | Podocin, optical density (Podocytes from NB rats; [6]): 23.4 arbitrary units and 49.06 arbitrary units and 13.3 arbitrary units and 19.07 arbitrary units and 16.81 arbitrary units and 18.63 arbitrary units and 21.42 arbitrary units and 18.78 arbitrary units and 23.84 arbitrary units and 36.51 arbitrary units and 21.23 arbitrary units and 23.65 arbitrary units and 27.62 arbitrary units | ZO-1, optical density (Podocytes from NB rats; [6]): 6.38 arbitrary units and 7.5 arbitrary units and 8.73 arbitrary units and 13.33 arbitrary units and 15.79 arbitrary units and 11.67 arbitrary units and 16.05 arbitrary units and 19.98 arbitrary units and 12.78 arbitrary units and 19.06 arbitrary units and 20.13 arbitrary units and 17.3 arbitrary units and 17.8 arbitrary units | α-Adducin, optical density (Podocytes from NB rats; [6]): 22.23 arbitrary units and 6.06 arbitrary units and 5.70 arbitrary units and 6.77 arbitrary units and 8.06 arbitrary units and 7.53 arbitrary units and 9.33 arbitrary units and 7.07 arbitrary units | Nephrin, optical density, mean (Podocytes from NB rats; NB podocytes, 5 days with Rostafuroxin 10^-9M, mean): 25.8 arbitrary units | Actin, optical density, mean ± sem (Podocytes from NB rats; [7]): 105.3 ± 4.75 arbitrary units | Podocin, optical density, mean ± sem (Podocytes from NB rats; [7]): 24.13 ± 2.6 arbitrary units | Synaptopodin, optical density, mean ± sem (Podocytes from NB rats; [7]): 2.70 ± 0.45 arbitrary units | ZO-1, optical density, mean ± sem (Podocytes from NB rats; [7]): 14.36 ± 1.3 arbitrary units | α-Adducin, optical density, mean ± sem (Podocytes from NB rats; [7]): 9.09 ± 1.9 arbitrary units
